The structures appear in SMILES notation. Bridge positions count the residues as written; N and C are the ends. Square brackets hold non-standard residues; d marks the D form. Peptide text beside a SMILES is read from it. * marks the point of attachment. Phe(4-COOH) = N[C@@H](Cc1ccc(C(=O)O)cc1)C(=O)O; Bip = N[C@@H](Cc1ccc(-c2ccccc2)cc1)C(=O)O; Phe(3-Me) = Cc1cccc(C[C@H](N)C(=O)O)c1; Cha = N[C@@H](CC1CCCCC1)C(=O)O; Carboxymethyl = O=C(O)C*; Orn = NCCC[C@H](N)C(=O)O; Aun = NCCCCCCCCCCC(=O)O; Dab = NCC[C@H](N)C(=O)O; Dap = NC[C@H](N)C(=O)O; AEEA = NCCOCCOCC(=O)O

T1 sequence (Q15116 25-288): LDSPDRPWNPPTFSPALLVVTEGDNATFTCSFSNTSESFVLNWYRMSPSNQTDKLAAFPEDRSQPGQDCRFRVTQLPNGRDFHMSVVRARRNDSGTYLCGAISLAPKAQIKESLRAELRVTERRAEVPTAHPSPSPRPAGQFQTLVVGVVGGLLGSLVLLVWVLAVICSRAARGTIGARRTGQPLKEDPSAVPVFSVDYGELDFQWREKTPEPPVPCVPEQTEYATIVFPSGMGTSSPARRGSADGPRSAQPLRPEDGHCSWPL

The assay addresses T1, PD-1/PD-L1 interaction (PE-labeled human PD-L1-Ig binding to Jurkat cell line over-expressing human PD-1) (Homo sapiens, UniProt Q15116).
T1 construct: expressed in transfected cells; host or cells: Jurkat
Kind of assay: Jurkat-PD-1 Cell Binding High-Content Screening Assay (CBA). It counts as cell-based. The note with it: Jurkat cell line over-expressing human PD-1; PE-labeled PD-L1-Ig 20 nM final; read-out: Jurkat hPD1-PDL1 IC50. In outline: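 Binding of fluorescent PD-L1-Ig (20 nM final) to Jurkat-PD-1 cells was measured by automated imaging after 1 h, following a 2 h compound pre-treatment at 37° C.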
Take `CC(C)C[C@H]1NC(=O)[C@H](CCCN)NC(=O)[C@H](C(C)C)NC(=O)[C@H](Cc2ccc(-c3ccccc3)cc2)NC(=O)[C@H](C(C)C)NC(=O)[C@H](Cc2c[nH]c3ccccc23)NC(=O)[C@H](CC(=O)O)NC(=O)[C@H](Cc2ccc(OCC(=O)O)cc2)NC(=O)[C@H](Cc2ccc(OCC(=O)O)cc2)NC(=O)CSC[C@@H](C(=O)NCCOCCOCC(=O)N[C@@H](CCN)C(=O)NCCCCCCCCCCC(=O)O)NC(=O)[C@H](CN)NC(=O)[C@H](C(C)C)NC(=O)[C@H](CC2CCCCC2)NC(=O)[C@H](CCN)NC1=O` [Compound 2546] ({CH2CO}-Y(Carboxymethyl)Y(Carboxymethyl)DWV[Bip]V[Orn][dL][Dab][Cha]V[Dap]C[AEEA][Dab][Aun]-OH; thioether N-14): the IC50 (commonly the midpoint of a concentration-inhibition curve) came to 13.3 nM. As for `CC(C)C[C@H]1NC(=O)[C@H](CCCN)NC(=O)[C@H](C(C)C)NC(=O)[C@H](Cc2ccc(-c3ccccc3)cc2)NC(=O)[C@H](C(C)C)NC(=O)[C@H](Cc2c[nH]c3ccccc23)NC(=O)[C@H](CC(=O)O)NC(=O)[C@H](Cc2ccc(C(=O)O)cc2)NC(=O)[C@H](Cc2ccc(OCC(=O)O)cc2)NC(=O)CSC[C@@H](C(=O)N[C@@H](CCN)C(=O)NCCOCCOCC(=O)NCCCCCCCCCCC(=O)O)NC(=O)[C@H](CCCCN)NC(=O)[C@H](C(C)C)NC(=O)[C@H](CC2CCCCC2)NC(=O)[C@H](CCN)NC1=O` [Compound 2547] ({CH2CO}-Y(Carboxymethyl)[Phe(4-COOH)]DWV[Bip]V[Orn][dL][Dab][Cha]VKC[Dab][AEEA][Aun]-OH; thioether N-14), the IC50 worked out at 31.9 nM. On to `CC(C)C[C@H]1NC(=O)[C@H](CCCN)NC(=O)[C@H](C(C)C)NC(=O)[C@H](Cc2ccc(-c3ccccc3)cc2)NC(=O)[C@H](C(C)C)NC(=O)[C@H](Cc2c[nH]c3ccccc23)NC(=O)[C@H](CC(=O)O)NC(=O)[C@H](Cc2ccc(OCC(=O)O)cc2)NC(=O)[C@H](Cc2ccc(OCC(=O)O)cc2)NC(=O)CSC[C@@H](C(=O)N[C@@H](CCN)C(=O)NCCOCCOCC(=O)NCCCCCCCCCCC(=O)O)NC(=O)[C@H](CCCNC(=N)N)NC(=O)[C@H](C(C)C)NC(=O)[C@H](CC2CCCCC2)NC(=O)[C@H](CCN)NC1=O` [Compound 2548] ({CH2CO}-Y(Carboxymethyl)Y(Carboxymethyl)DWV[Bip]V[Orn][dL][Dab][Cha]VRC[Dab][AEEA][Aun]-OH; thioether N-14), for which the IC50 worked out at 11.6 nM. The result for `CC(C)C[C@H]1NC(=O)[C@H](CCCN)NC(=O)[C@H](C(C)C)NC(=O)[C@H](Cc2ccc(-c3ccccc3)cc2)NC(=O)[C@H](C(C)C)NC(=O)[C@H](Cc2c[nH]c3ccccc23)NC(=O)[C@H](CC(=O)O)NC(=O)[C@H](Cc2ccc(OCC(=O)O)cc2)NC(=O)[C@H](CN)NC(=O)CSC[C@@H](C(=O)N[C@@H](CCN)C(=O)NCCOCCOCC(=O)NCCCCCCCCCCC(=O)O)NC(=O)[C@H](CCCCN)NC(=O)[C@H](C(C)C)NC(=O)[C@H](CC2CCCCC2)NC(=O)[C@H](CCN)NC1=O` [Compound 2549] ({CH2CO}-[Dap]Y(Carboxymethyl)DWV[Bip]V[Orn][dL][Dab][Cha]VKC[Dab][AEEA][Aun]-OH; thioether N-14) reads 9.4 nM. The value for `Cc1cccc(C[C@@H]2NC(=O)[C@H](CC(=O)O)NC(=O)[C@H](Cc3ccc(OCC(=O)O)cc3)NC(=O)[C@H](CN)NC(=O)CSC[C@@H](C(=O)N[C@@H](CCN)C(=O)NCCOCCOCC(=O)NCCCCCCCCCCC(=O)O)NC(=O)[C@H](CN)NC(=O)[C@H](C(C)C)NC(=O)[C@H](CC3CCCCC3)NC(=O)[C@H](CCN)NC(=O)[C@@H](CC(C)C)NC(=O)[C@H](CCCN)NC(=O)[C@H](C(C)C)NC(=O)[C@H](Cc3ccc(-c4ccccc4)cc3)NC(=O)[C@H](C(C)C)NC2=O)c1` [Compound 2550] ({CH2CO}-[Dap]Y(Carboxymethyl)D[Phe(3-Me)]V[Bip]V[Orn][dL][Dab][Cha]V[Dap]C[Dab][AEEA][Aun]-OH; thioether N-14) was 8 nM; that for `Cc1cccc(C[C@@H]2NC(=O)[C@H](CC(=O)O)NC(=O)[C@H](Cc3ccc(OCC(=O)O)cc3)NC(=O)[C@H](CN)NC(=O)CSC[C@@H](C(=O)N[C@@H](CCN)C(=O)NCCOCCOCC(=O)NCCCCCCCCCCC(=O)O)NC(=O)[C@H](CCCN)NC(=O)[C@H](C(C)C)NC(=O)[C@H](CC3CCCCC3)NC(=O)[C@H](CCN)NC(=O)[C@@H](CC(C)C)NC(=O)[C@H](CCCN)NC(=O)[C@H](C(C)C)NC(=O)[C@H](Cc3ccc(-c4ccccc4)cc3)NC(=O)[C@H](C(C)C)NC2=O)c1` [Compound 2551] ({CH2CO}-[Dap]Y(Carboxymethyl)D[Phe(3-Me)]V[Bip]V[Orn][dL][Dab][Cha]V[Orn]C[Dab][AEEA][Aun]-OH; thioether N-14) was 11.2 nM; that for `Cc1cccc(C[C@@H]2NC(=O)[C@H](CC(=O)O)NC(=O)[C@H](Cc3ccc(OCC(=O)O)cc3)NC(=O)[C@H](CN)NC(=O)CSC[C@@H](C(=O)N[C@@H](CCN)C(=O)NCCOCCOCC(=O)NCCCCCCCCCCC(=O)O)NC(=O)[C@H](CCCNC(=N)N)NC(=O)[C@H](C(C)C)NC(=O)[C@H](CC3CCCCC3)NC(=O)[C@H](CCN)NC(=O)[C@@H](CC(C)C)NC(=O)[C@H](CCCN)NC(=O)[C@H](C(C)C)NC(=O)[C@H](Cc3ccc(-c4ccccc4)cc3)NC(=O)[C@H](C(C)C)NC2=O)c1` [Compound 2552] ({CH2CO}-[Dap]Y(Carboxymethyl)D[Phe(3-Me)]V[Bip]V[Orn][dL][Dab][Cha]VRC[Dab][AEEA][Aun]-OH; thioether N-14) was 9.9 nM. The result for `CC(C)C[C@H]1NC(=O)[C@H](CCCN)NC(=O)[C@H](C(C)C)NC(=O)[C@H](Cc2ccc(-c3ccccc3)cc2)NC(=O)[C@H](C(C)C)NC(=O)[C@H](Cc2c[nH]c3ccccc23)NC(=O)[C@H](CC(=O)O)NC(=O)[C@H](Cc2ccc(OCC(=O)O)cc2)NC(=O)[C@H](Cc2ccc(OCC(=O)O)cc2)NC(=O)CSC[C@@H](C(=O)N[C@@H](CCN)C(=O)NCCOCCOCC(=O)NCCCCCCCCCCC(=O)O)NC(=O)[C@H](CCCN)NC(=O)[C@H](C(C)C)NC(=O)[C@H](CC2CCCCC2)NC(=O)[C@H](CCN)NC1=O` [Compound 2553] ({CH2CO}-Y(Carboxymethyl)Y(Carboxymethyl)DWV[Bip]V[Orn][dL][Dab][Cha]V[Orn]C[Dab][AEEA][Aun]-OH; thioether N-14) reads 11.3 nM; that for `CC(C)C[C@H]1NC(=O)[C@H](CCCN)NC(=O)[C@H](C(C)C)NC(=O)[C@H](Cc2ccc(-c3ccccc3)cc2)NC(=O)[C@H](C(C)C)NC(=O)[C@H](Cc2c[nH]c3ccccc23)NC(=O)[C@H](CC(=O)O)NC(=O)[C@H](Cc2ccc(OCC(=O)O)cc2)NC(=O)[C@H](Cc2ccc(OCC(=O)O)cc2)NC(=O)CSC[C@@H](C(=O)N[C@@H](CCN)C(=O)NCCOCCOCC(=O)NCCCCCCCCCCC(=O)O)NC(=O)[C@H](CN)NC(=O)[C@H](C(C)C)NC(=O)[C@H](CC2CCCCC2)NC(=O)[C@H](CCN)NC1=O` [Compound 2554] ({CH2CO}-Y(Carboxymethyl)Y(Carboxymethyl)DWV[Bip]V[Orn][dL][Dab][Cha]V[Dap]C[Dab][AEEA][Aun]-OH; thioether N-14), 11.5 nM; that for `CC(C)C[C@H]1NC(=O)[C@H](CCCN)NC(=O)[C@H](C(C)C)NC(=O)[C@H](Cc2ccc(-c3ccccc3)cc2)NC(=O)[C@H](C(C)C)NC(=O)[C@H](Cc2c[nH]c3ccccc23)NC(=O)[C@H](CC(=O)O)NC(=O)[C@H](Cc2ccc(C(=O)O)cc2)NC(=O)[C@H](Cc2ccc(OCC(=O)O)cc2)NC(=O)CSC[C@@H](C(=O)N[C@@H](CCN)C(=O)NCCCCCCCCCCC(=O)O)NC(=O)[C@H](CCCCN)NC(=O)[C@H](C(C)C)NC(=O)[C@H](CC2CCCCC2)NC(=O)[C@H](CCN)NC1=O` [Compound 2555] ({CH2CO}-Y(Carboxymethyl)[Phe(4-COOH)]DWV[Bip]V[Orn][dL][Dab][Cha]VKC[Dab][Aun]-OH; thioether N-14), 24.1 nM. Regarding `CC(C)C[C@H]1NC(=O)[C@H](CCCN)NC(=O)[C@H](C(C)C)NC(=O)[C@H](Cc2ccc(-c3ccccc3)cc2)NC(=O)[C@H](C(C)C)NC(=O)[C@H](Cc2c[nH]c3ccccc23)NC(=O)[C@H](CC(=O)O)NC(=O)[C@H](Cc2ccc(OCC(=O)O)cc2)NC(=O)[C@H](Cc2ccc(OCC(=O)O)cc2)NC(=O)CSC[C@@H](C(=O)N[C@@H](CCN)C(=O)NCCCCCCCCCCC(=O)O)NC(=O)[C@H](CCCNC(=N)N)NC(=O)[C@H](C(C)C)NC(=O)[C@H](CC2CCCCC2)NC(=O)[C@H](CCN)NC1=O` [Compound 2556] ({CH2CO}-Y(Carboxymethyl)Y(Carboxymethyl)DWV[Bip]V[Orn][dL][Dab][Cha]VRC[Dab][Aun]-OH; thioether N-14), the IC50 is 43.7 nM. As to `CC(C)C[C@H]1NC(=O)[C@H](CCCN)NC(=O)[C@H](C(C)C)NC(=O)[C@H](Cc2ccc(-c3ccccc3)cc2)NC(=O)[C@H](C(C)C)NC(=O)[C@H](Cc2c[nH]c3ccccc23)NC(=O)[C@H](CC(=O)O)NC(=O)[C@H](Cc2ccc(OCC(=O)O)cc2)NC(=O)[C@H](CN)NC(=O)CSC[C@@H](C(=O)N[C@@H](CCN)C(=O)NCCCCCCCCCCC(=O)O)NC(=O)[C@H](CCCCN)NC(=O)[C@H](C(C)C)NC(=O)[C@H](CC2CCCCC2)NC(=O)[C@H](CCN)NC1=O` [Compound 2557] ({CH2CO}-[Dap]Y(Carboxymethyl)DWV[Bip]V[Orn][dL][Dab][Cha]VKC[Dab][Aun]-OH; thioether N-14), the IC50 was 12.1 nM. For `Cc1cccc(C[C@@H]2NC(=O)[C@H](CC(=O)O)NC(=O)[C@H](Cc3ccc(OCC(=O)O)cc3)NC(=O)[C@H](CN)NC(=O)CSC[C@@H](C(=O)N[C@@H](CCN)C(=O)NCCCCCCCCCCC(=O)O)NC(=O)[C@H](CN)NC(=O)[C@H](C(C)C)NC(=O)[C@H](CC3CCCCC3)NC(=O)[C@H](CCN)NC(=O)[C@@H](CC(C)C)NC(=O)[C@H](CCCN)NC(=O)[C@H](C(C)C)NC(=O)[C@H](Cc3ccc(-c4ccccc4)cc3)NC(=O)[C@H](C(C)C)NC2=O)c1` [Compound 2558] ({CH2CO}-[Dap]Y(Carboxymethyl)D[Phe(3-Me)]V[Bip]V[Orn][dL][Dab][Cha]V[Dap]C[Dab][Aun]-OH; thioether N-14), the IC50 stood at 10.7 nM.
